According to ChEMBL document CHEMBL1127125, “Synthesis and testing of substituted phenylthioribose analogs against Klebsiella pneumoniae” (Bioorg Med Chem Lett, 1993):
pIC50: −log10 of the molar value. Converted amounts (≈) assume the structure as drawn.

Columns and labels:
Klebsiella pneumoniae [1] = experiment: Minimum inhibitory concentration of compound for its inhibitory activity against Klebsiella pneumoniae growth at 0.002 ug/mL; assay type: functional
Klebsiella pneumoniae [2] = experiment: Concentration required to inhibit the growth of a clinical strain of Klebsiella pneumoniae by 50%; assay type: functional, organism-based
Klebsiella pneumoniae [3] = experiment: Compound was tested for its ability to inhibit the growth of a clinical strain of Klebsiella pneumoniae; assay type: functional, organism-based
[4] = Compound was tested for its ability to inhibit the growth of a clinical strain Ochromonas malhamensis; assay type: functional
Plasmodium falciparum = experiment: Inhibition of Plasmodium falciparum; assay type: functional, organism-based
Klebsiella pneumoniae [5] = experiment: Minimum inhibitory concentration of compound for its inhibitory activity against Klebsiella pneumoniae growth at 2.4 ug/mL; assay type: functional
Klebsiella pneumoniae [6] = experiment: Compound was tested for its ability to inhibit the growth of a clinical strain of Klebsiella pneumoniae at 0.01 ng/mL; assay type: functional, organism-based
Klebsiella pneumoniae [7] = experiment: Minimum inhibitory concentration of compound for its inhibitory activity against Klebsiella pneumoniae growth at 20.7 ug/mL; assay type: functional
Klebsiella pneumoniae [8] = experiment: Minimum inhibitory concentration of compound for its inhibitory activity against Klebsiella pneumoniae growth at 2.60 ug/mL; assay type: functional

OC1O[C@H](CSc2ccc(I)cc2)[C@@H](O)[C@H]1O (stereo partly specified)
MIC (Klebsiella pneumoniae [1]): 0.005 µM (≈ 0.00184 µg/mL)

OC1O[C@H](CSc2ccc(C(F)(F)F)cc2)[C@@H](O)[C@H]1O (stereo partly specified)
pIC50 (Klebsiella pneumoniae [2]): 7.40

CCSC[C@H]1OC(O)[C@H](O)[C@@H]1O (stereo partly specified)
pIC50 (Klebsiella pneumoniae [3]): ~1.82 | pIC50 [4]: ~4.12 | pIC50 (Plasmodium falciparum): ~3.52

OC1O[C@H](CSc2ccc(Br)cc2)[C@@H](O)[C@H]1O (stereo partly specified)
MIC (Klebsiella pneumoniae [5]): 7.5 µM (≈ 2.41 µg/mL) | pIC50 (Klebsiella pneumoniae [6]): 6.43

OC1O[C@H](CSc2ccc(Cl)cc2)[C@@H](O)[C@H]1O (stereo partly specified)
MIC (Klebsiella pneumoniae [7]): 75 µM (≈ 20.8 µg/mL) | pIC50 (Klebsiella pneumoniae [6]): 6.30

OC1O[C@H](CSc2ccc(F)cc2)[C@@H](O)[C@H]1O (stereo partly specified)
pIC50 (Klebsiella pneumoniae [6]): 10.30 | MIC (Klebsiella pneumoniae [8]): 10 µM (≈ 2.6 µg/mL)
